Read-outs that look alike come from different tables or passages of the source.
Tests used:
[1] = molecular target: T1, GST-cGB-PDE5 fusion protein (cGMP binding sites of human PDE5A) (Homo sapiens, UniProt O76074); assay: cGMP binding assay with GST-cGB-PDE5 fusion protein; conditions: for competition with cGMP binding to GST-cGB-PDE5 at high concentration: 100 μM compound, cGMP 2 μM
T1 construct: made in house; host or cells: E. coli BL21 (DE3)
Source text: RT-PCR method is used to obtain the cGB domain of PDE5 with forward and reverse primers designed from bovine PDE5A cDNA sequence (McAllister-Lucas L. M. et al, J. Biol. Chem. 268, 22863-22873, 1993) and the selection among PDE 1-10 families. 5′-3′, Inc. kits for total RNA followed by oligo (dT) column purification of mRNA are used with HT-29 cells. […] It is then cloned into pGEX-5X-3 glutathione-S-transferase (GST) fusion vector (Pharmacia Biotech )with tac promoter, and EcoR1 and XhoI cut sites. The fusion vector is then transfected into E. Coli BL21 (DE3) bacteria (Invitrogen). The transfected BL21 bacteria is grown to log phase, and then IPTG is added as an inducer. The induction is carried at 20° C. for 24 hrs. The bacteria are harvested and lysed. The soluble cell lysate is incubated with GSH conjugated Sepharose 4B (GSH-Sepharose 4B). The GST-cGB-PDE5 fusion protein can bind to the GSH-Sepharose beads, and the other proteins are washed off from beads with excessive cold PBS.
Then, the mixture is transferred to Brandel MB-24 cell harvester with GF/B as the filter membrane followed by 2 washes with 10 mL of cold 5 mM potassium buffer(pH 6.8). The membranes are then cut out and transferred to scintillation vials followed by the addition of 1 mL of H2O and 6 mL of Ready Safe™ liquid scintillation cocktail to each vial. The vials are counted on a Beckman LS 6500 scintillation counter.
The quenching by filter membrane or other debris are also calibrated.

[2] = molecular target: T2, COX I (purified cyclooxygenase Type I) (Ovis aries, UniProt P05979); assay: Cyclooxygenase (COX) inhibition, purified COX; type: biochemical, ram; conditions: arachidonic acid 100 μM, 2.0 min, 37° C.
T2 construct: The COX was purified from ram seminal vesicles; from tissue; host or cells: ram seminal vesicles
T2 sequence (P05979 25-600): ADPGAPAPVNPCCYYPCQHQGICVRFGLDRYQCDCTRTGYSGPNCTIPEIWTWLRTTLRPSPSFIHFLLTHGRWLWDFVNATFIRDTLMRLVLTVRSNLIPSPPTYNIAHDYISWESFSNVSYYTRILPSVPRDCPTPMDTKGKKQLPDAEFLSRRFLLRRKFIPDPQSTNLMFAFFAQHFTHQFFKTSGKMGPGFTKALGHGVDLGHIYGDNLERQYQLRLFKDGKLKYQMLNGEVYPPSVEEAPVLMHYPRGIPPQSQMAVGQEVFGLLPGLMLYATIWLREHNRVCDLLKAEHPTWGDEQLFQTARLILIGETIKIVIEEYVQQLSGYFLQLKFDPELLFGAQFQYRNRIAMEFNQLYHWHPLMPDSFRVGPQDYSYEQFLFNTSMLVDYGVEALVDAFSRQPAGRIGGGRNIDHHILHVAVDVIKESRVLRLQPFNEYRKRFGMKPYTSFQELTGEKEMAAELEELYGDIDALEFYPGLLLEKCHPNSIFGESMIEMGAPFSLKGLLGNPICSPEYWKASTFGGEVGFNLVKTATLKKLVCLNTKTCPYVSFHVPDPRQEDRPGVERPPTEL
Procedure: COX catalyzes the formation of prostaglandins and thromboxane by the oxidative metabolism of arachidonic acid. The compound of Example 1 of this invention, as well as a positive control, (sulindac sulfide) were evaluated to determine whether they inhibited purified cyclooxygenase Type I (see Table 1 below).
The compounds of this invention were evaluated for inhibitory effects on purified COX. The COX was purified from ram seminal vesicles, as described by Boopathy, R. and Balasubramanian, J., 239:371-377, 1988. COX activity was assayed as described by Evans, A. T., et al., “Actions of Cannabis Constituents on Enzymes Of Arachidonate Metabolism Anti-Inflammatory Potential,” Biochem. Pharmacol., 36:2035-2037, 1987. Briefly, purified COX was incubated with arachidonic acid (100 μM) for 2.0 min at 37° C. in the presence or absence of test compounds. The assay was terminated by the addition of TCA, and COX activity was determined by absorbance at 530 nm.

native bovine PDE5 = native bovine PDE5 (Bos taurus, UniProt Q28156); conditions: read-out: Kd of cGMP binding, native bovine PDE5; cited from earlier work
U937 cells = assay: apoptosis induction of U937 cells (active caspase 3 immunofluorescence); type: cell-based; conditions: U937 cells, 24 hours
Procedure: U937 cells (from ATCC Rockville, Md.) were grown in RPMI media supplemented with 5% FCS, glutamine, antibiotic/antimycotic and sodium pyruvate. Total RNA was isolated from two U937 cultures, one treated with 5 nM TPA for 48 hours and one grown in normal media as listed above, using the Rouche High Pure RNA Isolation Kit (cat# 1 828 665) as per manufacturers protocol. cDNA was then synthesized from the total RNA using GibcoBRL SuperscriptII (Cat # 18064-022) reverse transcriptase as per manufacturers protocol. The resulting cDNA was used as a template for RT-PCR reactions using primer sets specific for PDE2 (forward: […], reverse: […]) or PDE5 (forward: […], reverse: […]). mRNA for PDE2 and 5 were both present in the untreated U937 cells. Upon treatment with TPA, the relative amounts of PDE2 mRNA increased 5 fold. Therefore, U937 cells treated with TPA and driven to differentiate into an activated macrophage like state have elevated levels of PDE2 mRNA (see FIG. 1).
The presence of PDE2 and PDE5 protein within U937 cells was confirmed by indirect immunofluorescence (IIF). U937 cells were cultured as above. Two U937 cultures, one grown in the presence of 5 nM TPA for 48 hours and one grown in normal media were processed. All cultures were collected by centrifugation (Shandon Cytospin, 2 minutes @ 600 rpm) onto poly-L lysine-coated slides and immediately fixed in fresh 3% paraformaldehyde buffered in PBS for 10 minutes. Adherent cultures were grown on coverslips and fixed as above. Cells were permeablized in 0.2% triton-100 for 2 minutes. Slides were blocked with blocking buffer (5% goat serum, 5% glycerol, 1% gelatin from cold water fish skin and 0.04% NaN3 in PBS) for 1 hour at room temperature.
Adherent cells were dislodged by treatment with trypsin EDTA for 5 minutes at 37° C. Cells were then processed for IIF as described above, except that an antibody specific for active caspase 3 was used (as per manufacturer's protocol) instead of antibodies to PDE2 or 5 (Promega Cat. #G7481). The anti-active caspase 3 antibody was diluted 1:200 in blocking buffer and processed according to the manufacturer's protocol. The resulting slides were observed under a fluorescent microscope and a digital images were obtained.
The level of apoptosis in U937 cells was quantified by scoring 500 consecutive cells for the presence of active caspase 3.
The cells were harvested and processed for IIF as described above using an antibody that specifically recognizes active caspase 3. […] Therefore, the inhibition of only PDE4 or PDE5 alone (i.e. without the inhibition of PDE2) is not sufficient to induce apoptosis in U937 cells.

T1 sequence (O76074 46-539 limits assumed): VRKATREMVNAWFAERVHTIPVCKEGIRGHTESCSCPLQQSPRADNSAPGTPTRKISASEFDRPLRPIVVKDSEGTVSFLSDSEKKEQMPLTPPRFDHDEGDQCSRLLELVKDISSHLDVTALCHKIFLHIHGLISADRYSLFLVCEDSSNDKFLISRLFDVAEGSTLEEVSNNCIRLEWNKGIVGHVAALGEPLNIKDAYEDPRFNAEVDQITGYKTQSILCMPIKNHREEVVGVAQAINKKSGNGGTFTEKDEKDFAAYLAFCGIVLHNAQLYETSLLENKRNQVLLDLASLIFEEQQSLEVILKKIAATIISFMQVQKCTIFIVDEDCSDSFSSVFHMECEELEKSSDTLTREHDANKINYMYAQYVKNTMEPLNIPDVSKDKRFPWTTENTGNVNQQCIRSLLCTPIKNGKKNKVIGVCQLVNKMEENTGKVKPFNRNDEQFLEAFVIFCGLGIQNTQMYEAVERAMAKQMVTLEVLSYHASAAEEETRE

Row | Compound | competition with cGMP in binding to the cGMP binding sites of GST-cGB-PDE5 ([1]; 3H-cGMP 2 μM) | further results
1 | CC1=C(CC(=O)O)c2cc(F)ccc2/C1=C\c1ccc(S(C)(=O)=O)cc1 [exisulind] | None of the PDE5 inhibitors showed any competition | 
2 | CSc1ccc(/C=C2/C(C)=C(CC(=O)O)c3cc(F)ccc32)cc1 [Sulindac sulfide, sulindac sulfide, reference compound] | None of the PDE5 inhibitors showed any competition | inhibition at 100 µM [2]: 86%
3 | O=C(O)C1CCN(c2nc(NCc3ccc4c(c3)OCO4)c3cc(Cl)ccc3n2)CC1 [Example E4021] | None of the PDE5 inhibitors showed any competition | 
4 | CCCOc1ccccc1-c1nc2nn[nH]c2c(=O)[nH]1 [zaprinast] | None of the PDE5 inhibitors showed any competition | 
5 | CCCCOC1C2OP(=O)(O)OCC2OC1n1cnc2c(=O)[nH]c(N)nc21 (stereo not drawn) [2′-O-butyl-cGMP] | did not compete | 
6 | CC1=C(CC(=O)NCc2ccccc2)c2cc(F)ccc2/C1=C\c1ccncc1 [Example 1, (Z)-5-Fluoro-2-Methyl-(4-Pyridinylidene)-3-(N-Benzyl)-Indenylacetamide] |  | inhibition at 100 µM [2]: < 25%
7 | O=c1[nH]cnc2c1ncn2[C@@H]1O[C@@H]2COP(=O)(O)O[C@H]2[C@H]1O [Cyclic IMP] |  | competition with cGMP binding to GST-cGB-PDE5 at high concentration [1]: partially compete
8 | Nc1ccn([C@@H]2O[C@@H]3COP(=O)(O)O[C@H]3[C@H]2O)c(=O)n1 [cCMP, cyclic CMP] | did not compete | 
9 | Nc1nc2c(ncn2[C@@H]2O[C@@H]3COP(=O)(O)O[C@H]3[C@H]2O)c(=O)[nH]1 [cGMP, cyclic 3′,5′-guanosine monophosphate] | specifically bound | Kd ([1]; read-out: Kd of cGMP binding to GST-cGB-PDE5 fusion protein, two cGMP binding sites): 1600 ± 200 nM; Kd (native bovine PDE5): 1300 nM
10 | Nc1ncnc2c1ncn2[C@@H]1O[C@@H]2COP(=O)(O)O[C@H]2[C@H]1O [Cyclic AMP] |  | competition with cGMP in binding to the cGMP binding sites of GST-cGB-PDE5 [1]: did not compete
11 | COc1ccc(C2CNC(=O)C2)cc1OC1CCCC1 (stereo not drawn) [rolipram, reference compound] |  | levels of apoptosis compared to normal background (active caspase 3) (U937 cells; 0.5 uM): No increase in the levels of apoptosis
12 | CCCCOC1C2OP(=O)(O)OCC2OC1n1cnc2c(N)ncnc21 (stereo not drawn) [2′-O-butyl-cAMP] | did not compete | 
13 | CCCc1nn(C)c2c(=O)[nH]c(-c3cc(S(=O)(=O)N4CCN(C)CC4)ccc3OCC)nc12 [sildenafil, reference compound] |  | levels of apoptosis compared to normal background (active caspase 3) (U937 cells; 0.3 nM): No increase in the levels of apoptosis
14 | Nc1nc2c(nc(Br)n2[C@@H]2O[C@@H]3COP(=O)(O)O[C@H]3[C@H]2O)c(=O)[nH]1 [Example 8-bromo-cGMP, 8-bromo-cGMP] |  | competition with cGMP binding to GST-cGB-PDE5 at high concentration [1]: partially compete
15 | O=c1ccn([C@@H]2O[C@@H]3COP(=O)(O)O[C@H]3[C@H]2O)c(=O)[nH]1 [cUMP, cyclic UMP] | did not compete | 
